Data as given in paper PMC3001719, “The heme sensing response regulator HssR in Staphylococcus aureus but not the homologous RR23 in Listeria monocytogenes modulates susceptibility to the antimicrobial peptide plectasin” (BMC Microbiology, 2010).

Key:
S. aureus = assay: ATP leakage (intracellular and extracellular ATP, bioluminescence); type: cell-based, Staphylococcus aureus; settings: S. aureus, 500 μg/ml peptide, 50 mM HEPES pH 7.0 with 0.2% glucose, vs peptide dilution buffer; two independent experiments
Method: (§1) L. monocytogenes and S. aureus were grown in TSB at 37°C. Bacteria were harvested (10 min at 3000 RPM) at mid-exponential phase (absorbance at 546 nm of 2.5 ± 0.2 and 1.0 ± 0.2 for S. aureus and L. monocytogenes, respectively), washed once in 50 mM potassium phosphate buffer pH 7.0 and once in 50 mM HEPES buffer pH 7.0. The pellet was resuspended in 50 mM HEPES pH 7.0 to a final absorbance at 546 nm of 10. Bacteria were stored on ice and used within 5 hours. […] ATP was determined using a bioluminescence kit (Sigma, FLAA-1KT) and a BioOrbit 1253 luminometer. Total ATP content was determined by rapidly permeabilising 20 μl cell suspension with 80 μl dimethyl sulfoxide. The cell suspension was diluted in 4.9 ml sterile water, and ATP content was determined in 100 μl of the preparation as described by the manufacturer. To determine the extracellular ATP concentration, the 20 μl cell suspension was mixed with 80 μl sterile water and analyzed as described above. Intracellular ATP concentrations were calculated by using the intracellular volumes of 0.85 and 1.7 μm^3 for S. aureus and L. monocytogenes, respectively. The number of cells in suspension was determined by plate spreading.

L. monocytogenes [1] = assay: as above; type: cell-based, Listeria monocytogenes; settings: L. monocytogenes, 500 μg/ml peptide, 50 mM HEPES pH 7.0 with 0.2% glucose, vs peptide dilution buffer
Method: as §1

[2] = tested on: S. aureus 15981 wild type; assay: Growth in TSB with plectasin; type: cell-based, Staphylococcus aureus; settings: plectasin 35 μg/ml, 37°C, absorbance at 600 nm
Method: (§2) Overnight cultures of S. aureus were diluted to an absorbance at 600 nm of 0.05 in TSB with and without 4 μM hemin and/or 35 μg/ml plectasin and grown at 37°C. Measurements of the absorbance were made every 30 minutes.

[3] = tested on: S. aureus 15981 ΔTCS15 (hssRS) mutant; assay: Growth in TSB with plectasin; type: cell-based, Staphylococcus aureus; settings: plectasin 35 μg/ml, 37°C, absorbance at 600 nm
Method: as §2

[4] = tested on: S. aureus 8325-4 hssR::bursa transposon mutant; assay: Growth in TSB with plectasin; type: cell-based, Staphylococcus aureus; settings: plectasin 35 μg/ml, 37°C, absorbance at 600 nm
Method: as §2

[5] = tested on: S. aureus 8325-4 hssR::bursa/pRMC2-hssRS; assay: Growth in TSB with plectasin; type: cell-based, Staphylococcus aureus; settings: plectasin 35 μg/ml, 37°C, absorbance at 600 nm
Method: as §2

[6] = tested on: hrtB and hssR expression in wild type S. aureus; assay: Expression of hrtB and hssR, northern blot and quantitative real-time PCR; type: cell-based, Staphylococcus aureus; settings: plectasin 35 μg/ml, 10 and 90 minutes, northern blot and quantitative real-time PCR (P > 0.05)
Method: Wild type S. aureus and the hssR mutant were grown to an absorbance at 600 nm of 0.45 ± 0.1, samples were withdrawn for the isolation of RNA. Plectasin (35 μg/ml) was added to the growing culture, and after 10 and 90 minutes samples were also withdrawn. Cells were quickly cooled and lysed mechanically using the FastPrep machine (Bio101; Q-biogene), and RNA was isolated by the RNeasy kit (QIAGEN, Valencia, Calif.) according to the manufacturer's instructions. Northern Blotting: RNA was transferred to a nylon membrane (Boehringer Mannheim) by capillary blotting as previously described. Hybridization was performed using gene-specific probes that had been labelled with [^32P]dCTP using the Ready-to-Go DNA-labelling beads from Amersham Biosciences. Primers for probes amplifying hrtB and hssR: hrtB-1F:(5'[…]3'), hrtB-2R: (5'[…]3'), hssR-1F: (5'[…]3'), hssR-2R:(5' […]3'). All steps were repeated in two independent experiments giving similar results. Quantitative RT-PCR: RNA was treated with DNase and RevertAid™ H Minus first strand cDNA synthesis Kit (Fermentas). […] Statistical analysis on QRTPCR results using GraphPad prism5, 1Way Anova with Dunnett's Multiple comparison test (GraphPad Software, Inc) determined changes in expression comparing time 0 to time 10 minutes or 90 minutes.

L. monocytogenes [7] = assay: Extracellular protein profile by SDS-PAGE; type: cell-based, Listeria monocytogenes; settings: L. monocytogenes grown with or without plectasin overnight at 37°C in BHI; data not shown
Method: Prewarmed TSB and BHI (25 ml) in a 250 ml Erlenmeyer flask was inoculated with S. aureus strains and L. monocytogenes strains, respectively. These flasks were grown with and without plectasin at 37°C overnight (≈ 17 h) with shaking. The next morning, the exact absorbance at 600 nm of the cultures was measured, and 15 ml of culture was centrifuged to precipitate the cells (6 000 RPM; 7 min; 0°C). The supernatant was transferred to a 50 ml Blue cap bottle (placed in an ice/water bath), and the extracellular proteins were precipitated by adding one volume of ice-cold 96% EtOH and left in the refrigerator overnight for proteins to precipitate. Precipitated proteins were collected by centrifugation (11,000 RPM; 30 min; 0°C). Protein pellets were suspended in a volume of 50 mM Tris-HCl (pH 6.8) adjusted to the original absorbance of the overnight culture so that 15 ml of overnight culture with absorbance at 600 nm of 5.0 was suspended in 0.8 ml of 50 mM Tris-HCl (pH 6.8). A sample of 15 μl of the protein extracts was analysed on NuPAGE® 4-12% Bis-Tris gels (Invitrogen) using the X Cell SureLock® Mini-Cell system (Invitrogen) as recommended by the supplier. The gels were Coomassie stained using GelCode® Blue Stain Reagent (Pierce).

[8] = tested on: mice, human keratinocytes and erythrocytes; settings: in mice and on human keratinocytes and erythrocytes; cited from earlier work
Description: Recently, the antimicrobial peptide, plectasin isolated from a saprophytic fungus, was described.

## CC[C@H](C)[C@@H]1NC(=O)[C@H](CO)NC(=O)[C@H](CCCCN)NC(=O)[C@@H]2CSSC[C@@H](C(=O)N[C@@H](Cc3ccc(O)cc3)C(=O)O)NC(=O)[C@H](CCCCN)NC(=O)[C@@H]3CSSC[C@H](NC(=O)[C@H](CCC(N)=O)NC(=O)[C@H](CCSC)NC(=O)[C@H](CC(=O)O)NC(=O)[C@H](CC(=O)O)NC(=O)[C@H](CCC(=O)O)NC(=O)[C@H](CC(=O)O)NC(=O)[C@H](Cc4c[nH]c5ccccc45)NC(=O)[C@@H]4CCCN4C(=O)CNC(=O)[C@H](CC(N)=O)NC(=O)[C@@H](NC(=O)CNC(=O)[C@H](Cc4ccccc4)NC(=O)CN)CSSC[C@H](NC(=O)[C@H](Cc4ccc(O)cc4)NC(=O)CNC(=O)CNC(=O)[C@H](CCCCN)NC(=O)[C@H](Cc4ccc(O)cc4)NC(=O)CNC(=O)[C@H](CCCCN)NC1=O)C(=O)N[C@@H](C)C(=O)N[C@@H](CCCCN)C(=O)NCC(=O)NCC(=O)N[C@@H](Cc1ccccc1)C(=O)N[C@@H](C(C)C)C(=O)N3)C(=O)N[C@@H](Cc1c[nH]cn1)C(=O)N[C@@H](CC(N)=O)C(=O)N[C@@H](Cc1c[nH]cn1)C(=O)N2 [plectasin]
S. aureus
  ATP leakage (intracellular ATP concentration): remained at the same level as the controls
L. monocytogenes [1]
  ATP leakage (intracellular ATP concentration): remained at the same level as the controls
[2]
  Growth in the presence of plectasin: inhibited the growth
[3]
  Growth in the presence of plectasin: hardly affected the growth
[4]
  Growth in the presence of plectasin: hardly affected the growth
[5]
  Growth in the presence of plectasin: inhibited the growth to a level comparable to wild type
[6]
  Expression of hrtB and hssR: no change of expression
L. monocytogenes [7]
  Abundance of extracellular proteins: no difference in the abundance of extracellular proteins
[8]
  Toxicity: very low toxicity
